From ChEMBL document CHEMBL1158675, “A bioactive secosterol with an unusual A- and B-ring oxygenation pattern isolated from an Indonesian soft coral Lobophytum sp” (J Nat Prod, 1998)

How the values were obtained:
[1] = system: A2780; experiment: Cytotoxicity against human A2780 cells; type: functional, cell-based
[2] = system: K562; experiment: Cytotoxicity against human K562 cells; type: functional, cell-based

CC(C)[C@@H](C)[C@@]1(C)C[C@@H]1[C@@H](C)[C@H]1CC[C@@H]([C@H]2C(=O)[C@@]3(C)CC[C@H](O)C[C@@]34O[C@H]4[C@@H]2O)[C@]1(C)CCO
IC50 [1]: 6.3 µM
IC50 [2]: 7.1 µM
